According to patent US20220324835A1 (Nurix Therapeutics, Inc., priority 2018, published 2022):

Assays:
T-cell [1] = experiment: IL-2 secretion from T-cells stimulated with anti-CD3 antibody alone (Biological Example 2); assay type: cell-based, human; conditions: Homo sapiens, T-cell; 1 μM Cbl-b inhibitor; fold change over baseline (anti-CD3/anti-CD28 stimulated T-cells without inhibitor); read-out: IL-2 secretion Anti-CD3 stimulation
Cbl-b [2] = molecular target: T1, Cbl-b (Homo sapiens, UniProt Q13191); experiment: Cbl-b activity assay (Cbl-b inhibition assay), TR-FRET of Cbl-b interaction with UbcH5B-Ub; assay type: biochemical; conditions: assay buffer with 100 mM NaCl, 60 nM Src kinase; read-out: Cbl-b activity IC50
In short: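 UbcH5B (C85K) conjugated to N-terminally Bodipy-Fluorescein-labeled ubiquitin served as the fluorescent partner. After compound preincubation, Src kinase (60 nM) with 1 mM ATP and 5 mM MgCl2 (final) was added for 1.5 h, followed by a further 1 h incubation. Some values were obtained with 50 mM NaCl and 30 nM Src.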

T-cell [3] = experiment: CD25 cell surface staining on T-cells stimulated with anti-CD3 antibody alone (Biological Example 2); assay type: cell-based, human; conditions: Homo sapiens, T-cell; 1 μM Cbl-b inhibitor; fold change over baseline (anti-CD3/anti-CD28 stimulated T-cells without inhibitor); read-out: CD25 staining Anti-CD3 stimulation
T-cell [4] = experiment: CD25 cell surface staining on T-cells co-stimulated with anti-CD3 and anti-CD28 antibody (Biological Example 2); assay type: cell-based, human; conditions: Homo sapiens, T-cell, fold change over baseline (anti-CD3/anti-CD28 stimulated T-cells without inhibitor), read-out: CD25 staining Anti-CD3/Anti-CD28 stimulation; for fold induction at 0.3 µM: 0.3 μM Cbl-b inhibitor; for fold induction at 1 µM: 1 μM Cbl-b inhibitor
In short: (§1)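 T-cells were stimulated with anti-CD3 antibody alone or with anti-CD28 antibody, in the presence or absence of Cbl-b inhibitor. IL-2 secretion or CD25 surface staining was measured, and values expressed as fold over the uninhibited baseline […].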

T-cell [5] = experiment: IL-2 secretion from T-cells co-stimulated with anti-CD3 and anti-CD28 antibody (Biological Example 2); assay type: cell-based, human; conditions: Homo sapiens, T-cell, fold change over baseline (anti-CD3/anti-CD28 stimulated T-cells without inhibitor), read-out: IL-2 secretion Anti-CD3/Anti-CD28 stimulation; for fold induction at 0.3 µM: 0.3 μM Cbl-b inhibitor; for fold induction at 1 µM: 1 μM Cbl-b inhibitor
In short: as §1

Cbl-b [6] = molecular target: T1, Cbl-b; experiment: Cbl-b inhibition assay (Cbl-b activity assay, FRET, Biological Example 1; 100 mM NaCl, 60 nM Src kinase); assay type: biochemical; conditions: upper bound stated in text lists; read-out: IC50 values in the Cbl-b inhibition assay of Biological Example 1
In short: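 Inhibition is read as loss of FRET signal. The signal arises when Src-phosphorylated, N-terminal biotinylated Avi-Cbl-b (captured by streptavidin-terbium) binds UbcH5B carrying covalently linked Bodipy-Fluorescein-tagged ubiquitin.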

T1 sequence (Q13191 36-427): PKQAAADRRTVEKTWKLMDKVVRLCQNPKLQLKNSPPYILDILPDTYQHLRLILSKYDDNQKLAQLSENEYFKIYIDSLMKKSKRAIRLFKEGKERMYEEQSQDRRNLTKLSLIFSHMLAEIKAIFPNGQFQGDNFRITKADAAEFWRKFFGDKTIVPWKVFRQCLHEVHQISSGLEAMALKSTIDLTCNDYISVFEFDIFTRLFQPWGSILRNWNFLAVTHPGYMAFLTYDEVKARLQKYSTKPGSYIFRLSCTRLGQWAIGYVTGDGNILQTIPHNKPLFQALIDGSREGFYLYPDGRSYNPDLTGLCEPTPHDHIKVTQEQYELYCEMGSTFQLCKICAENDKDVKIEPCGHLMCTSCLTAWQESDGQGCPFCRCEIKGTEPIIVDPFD

SMILES | fold induction at 1 µM (T-cell [1]) | IC50 (Cbl-b [2]) [nM] | fold induction at 1 µM (T-cell [3]) | fold induction at 0.3 µM (T-cell [4]) | fold induction at 1 µM (T-cell [4]) | fold induction at 0.3 µM (T-cell [5]) | fold induction at 1 µM (T-cell [5]) | IC50 (Cbl-b [6]) [nM]
Cn1cnnc1C(F)(F)C1(c2cccc(N3Cc4c(cc(CN5CC(F)C5)cc4C(F)(F)F)C3=O)c2)COC1 [Example 679, 2-(3-(3-(difluoro(4-methyl-4H-1,2,4-triazol-3-yl)methyl)oxetan-3-yl)phenyl)-6-((3-fluoroazetidin-1-yl)methyl)-4-(trifluoromethyl)isoindolin-1-one] | 0.101 to 0.15 | < 100 | > 1 | 1.01 to 1.3 | 1.01 to 1.3 | 2.51 to 5 | 5 to 7.5 | ≤ 100
C[C@H](Cc1nncn1C)c1cc(C2CC2)nc(N2Cc3c(cccc3C(F)(F)F)C2=O)c1 [Example 680, (R)-2-(6-cyclopropyl-4-(1-(4-methyl-4H-1,2,4-triazol-3-yl)propan-2-yl)pyridin-2-yl)-4-(trifluoromethyl)isoindolin-1-one] | 0.101 to 0.15 | < 100 | 0.801 to 1 | 1.01 to 1.3 | 1.01 to 1.3 | 1.01 to 2.5 | 2.51 to 5 | ≤ 100
C[C@H](Cc1nncn1C)c1cc(N2Cc3c(cccc3C(F)(F)F)C2=O)nc(C2(C)CC2)c1 [Example 681, (R)-2-(4-(1-(4-methyl-4H-1,2,4-triazol-3-yl)propan-2-yl)-6-(l-methylcyclopropyl)pyridin-2-yl)-4-(trifluoromethyl)isoindolin-1-one] | 0.051 to 0.1 | 301 to 1000 | < 0.6 | 1.01 to 1.3 | 1.01 to 1.3 | 1.01 to 2.5 | 1.01 to 2.5 | ≤ 1000
C[C@H](Cc1nncn1C)c1cc(-c2cncs2)nc(N2Cc3c(cccc3C(F)(F)F)C2=O)c1 [Example 682, (R)-2-(4-(1-(4-methyl-4H-1,2,4-triazol-3-yl)propan-2-yl)-6-(thiazol-5-yl)pyridin-2-yl)-4-(trifluoromethyl)isoindolin-1-one] | 0.051 to 0.1 | 301 to 1000 | < 0.6 | 1.01 to 1.3 | 1.01 to 1.3 | 1.01 to 2.5 | 1.01 to 2.5 | ≤ 1000
C[C@H](Cc1nncn1C)c1cc(C2CCOCC2)nc(N2Cc3c(cccc3C(F)(F)F)C2=O)c1 [Example 686, (R)-2-(4-(1-(4-methyl-4H-1,2,4-triazol-3-yl)propan-2-yl)-6-(tetrahydro-2H-pyran-4-yl)pyridin-2-yl)-4-(trifluoromethyl)isoindolin-1-one] | < 0.05 | 301 to 1000 | < 0.6 | 1.01 to 1.3 | 1.01 to 1.3 | 1.01 to 2.5 | 1.01 to 2.5 | ≤ 1000
C[C@H](Cc1nncn1C)c1cc(N[C@@H]2CC[C@@H]2O)nc(N2Cc3c(cccc3C(F)(F)F)C2=O)c1 [Example 689a, 2-(6-(((1R,2S)-2-hydroxycyclobutyl)amino)-4-((R)-1-(4-methyl-4H-1,2,4-triazol-3-yl)propan-2-yl)pyridin-2-yl)-4-(trifluoromethyl)isoindolin-1-one] | < 0.05 | 301 to 1000 | 0.601 to 0.8 | 1.01 to 1.3 | 1.01 to 1.3 | 1.01 to 2.5 | 1.01 to 2.5 | ≤ 1000
C[C@H](Cc1nncn1C)c1cc(N[C@H]2CC[C@H]2O)nc(N2Cc3c(cccc3C(F)(F)F)C2=O)c1 [Example 689b, 2-(6-(((1S,2R)-2-hydroxycyclobutyl)amino)-4-((R)-1-(4-methyl-4H-1,2,4-triazol-3-yl)propan-2-yl)pyridin-2-yl)-4-(trifluoromethyl)isoindolin-1-one] | < 0.05 | 301 to 1000 | < 0.6 | 1.01 to 1.3 | 1.01 to 1.3 | 1.01 to 2.5 | 1.01 to 2.5 | ≤ 1000
CCOc1cc(NC(=O)c2cc(C)nc(C3CC3)n2)cc(C2(Cc3nncn3C)COC2)c1 [Example 690, 2-cyclopropyl-N-(3-ethoxy-5-(3-((4-methyl-4H-1,2,4-triazol-3-yl)methyl)oxetan-3-yl)phenyl)-6-methylpyrimidine-4-carboxamide] | 0.051 to 0.1 | < 100 | 0.801 to 1 | 1.01 to 1.3 | 1.01 to 1.3 | 2.51 to 5 | 5 to 7.5 | ≤ 100
CCOc1cc(N2Cc3c(cc([C@@H](C)N4CC[C@H](F)C4)cc3C(F)(F)F)C2=O)cc(C2(Cc3nncn3C)COC2)c1 [Example 691a, 2-(3-ethoxy-5-(3-((4-methyl-4H-1,2,4-triazol-3-yl)methyl)-oxetan-3-yl)phenyl)-6-((R)-1-((S)-3-fluoropyrrolidin-1-yl)ethyl)-4-(trifluoromethyl)-isoindolin-1-one] | > 0.201 | < 100 | > 1 | 1.31 to 1.5 | 1.51 to 1.75 | > 7.5 | > 7.5 | ≤ 100
CCOc1cc(N2Cc3c(cc([C@H](C)N4CC[C@H](F)C4)cc3C(F)(F)F)C2=O)cc(C2(Cc3nncn3C)COC2)c1 [Example 691b, 2-(3-ethoxy-5-(3-((4-methyl-4H-1,2,4-triazol-3-yl)methyl)oxetan-3-yl)phenyl)-6-((S)-1-((S)-3-fluoropyrrolidin-1-yl)ethyl)-4-(trifluoromethyl)isoindolin-1-one] | 0.151 to 0.2 | < 100 | > 1 | 1.31 to 1.5 | 1.51 to 1.75 | 2.51 to 5 | > 7.5 | ≤ 100
Cc1cc2c(c(C3CC3)n1)CN(c1cccc(C3(Cc4nncn4C)COC3)c1)C2=O [Example 692, 4-cyclopropyl-6-methyl-2-(3-(3-((4-methyl-4H-1,2,4-triazol-3-yl)methyl)oxetan-3-yl)phenyl)-2,3-dihydro-1H-pyrrolo[3,4-c]pyridin-1-one] | 0.051 to 0.1 | < 100 | 0.801 to 1 | 1.01 to 1.3 | 1.31 to 1.5 | 1.01 to 2.5 | 2.51 to 5 | ≤ 100
Cn1cnnc1CC1(c2cccc(N3Cc4c(cc(CN5CCCC(F)(F)C5)cc4C(F)(F)F)C3=O)c2)COC1 [Example 693, 6-((3,3-difluoropiperidin-1-yl)methyl)-2-(3-(3-((4-methyl-4H-1,2,4-triazol-3-yl)methyl)oxetan-3-yl)phenyl)-4-(trifluoromethyl)isoindolin-1-one] | > 0.201 | < 100 | > 1 | 1.51 to 1.75 | 1.51 to 1.75 | > 7.5 | > 7.5 | ≤ 100
Cc1cc(C(=O)Nc2cccc(C3(Cc4nncn4C)CCC3)c2)nc(C2CC2)n1 [Example 694, 2-cyclopropyl-6-methyl-N-(3-(1-((4-methyl-4H-1,2,4-triazol-3-yl)methyl)cyclobutyl)phenyl)pyrimidine-4-carboxamide] | 0.051 to 0.1 | < 100 | > 1 | 1.31 to 1.5 | 1.31 to 1.5 | > 7.5 | > 7.5 | ≤ 100
Cn1cnnc1CC1(c2cccc(N3Cc4c(cc(CN5CCC6(CC6)C5)cc4C(F)(F)F)C3=O)c2)CCC1 [Example 695, 6-((5-azaspiro[2.4]heptan-5-yl)methyl)-2-(3-(1-((4-methyl-4H-1,2,4-triazol-3-yl)methyl)cyclobutyl)phenyl)-4-(trifluoromethyl)isoindolin-1-one] | > 0.201 | < 100 | > 1 | 1.31 to 1.5 | 1.31 to 1.5 | > 7.5 | > 7.5 | ≤ 100
